Legend:
Papillomaviruses = details: cited from earlier work
[1] = in vivo
Description: • 1. It was recently discovered that the transcription factor Zinc-finger protein Gli-similar (Glisl) is found only in psoriatic and not in the epidermis of healthy skin^2. The expression of this protein is restricted to the suprabasal level of the psoriatic epidermis. […] The mode of action of the drug involves displacement Zinc from the protein by the axial ligation of the drug's cobalt (III) complex to the nitrogen of the imidazole ring of the histidine residues. The zinc-finger bearing protein is thus inactivated^4. • We have discovered that Doxovir (CTC-96) will inactivate Glis1 in Psoriatic epidermis and as a result may selectively retard the abnormal proliferation and differentiation of psoriatic keratinocytes. • 2. There have been several reports of the possibility that Human Papilloma Viruses (HPVs) are associated with at least certain manifestations of psoriasis (e.g. ^5,6,7,8). Papillomaviruses proliferate and affect the differentiation and proliferation of keratinocytes. The possible role of the virus (particularly HPV type 5) in the etiology or the maintenance of the abnormal differentiation of psoriatic human skin keratinocytes has thus been postulated. • JunB protein, a component of the ubiquitous transcription factor AP-1, regulates cell proliferation, differentiation, stress responses and cytokine expression in various tissues. […]

[2] = test system: Zinc-fingers in which the Zinc is tetrahedrally coordinated to cysteines and histidines; details: cysteine/histidine-coordinated Zinc; cited from earlier work
[3] = test system: type II collagen-induced arthritis; details: mice; cited from earlier work

In the case of `CC(/C=C(/C)[O-])=NCCN=C(C)/C=C(/C)[O-].Cc1ncc[nH]1.Cc1ncc[nH]1.[Br-].[Co+3]` [Doxovir], the anti-papillomavirus activity (Papillomaviruses) is given as “distinct anti-papillomavirus activity”, the “adverse effects on intact skin” value [1] is given as “no adverse effects on intact skin” and the “disruption of structure and function of Zinc-fingers” value [2] is given as “selectively disrupts the structure and function of Zinc-fingers”. The “therapeutic activity for type II collagen-induced arthritis” value [3] was “proven to have therapeutic activity”.

Source: patent US20100069487A1, “METHOD FOR THE TREATMENT OF PSORIASIS” (REDOX PHARMACEUTICAL CORPORATION, priority 2006, published 2010)
